Patent US20250122174A1 (Shenzhen Yuanli Shenwan Innovative Medicine Co., Ltd., priority 2022, published 2025)

target: HPK1 (Homo sapiens (Human), UniProt Q92918); experiment: HPK1 Inhibition Assay (ADP-Glo kinase assay); assay type: biochemical; conditions: ATP 10 μM
Experimental: A stock solution of 10 mM test compound was prepared in DMSO. The compound was prepared by 5-fold and 10-point serial dilutions with HPK1 kinase assay buffer. The HPK1 kinase assay buffer contained 40 mM Tris, pH 7.5; 20 mM MgCl2, 0.1 mg/ml BSA, and 50 μM DTT. 7.5 ng/μl of Active HPK1 (Promega, V4098) and 0.1 μg/ml MBP substrate protein were added to the reaction system. The final concentration of ATP in the HPK1 kinase reaction system was 10 μM. Serial diluted compounds were transferred to the reaction system and incubated at room temperature for 1 hr. 5 μL of ADP-Glo™ Reagent (Promega, V9101) was added and incubated for 40 min to stop the kinase reaction and deplete the unconsumed ATP. […] The luminescence was measured with a plate-reading luminometer.

Chain of HPK1 (Q92918 1-346 limits assumed): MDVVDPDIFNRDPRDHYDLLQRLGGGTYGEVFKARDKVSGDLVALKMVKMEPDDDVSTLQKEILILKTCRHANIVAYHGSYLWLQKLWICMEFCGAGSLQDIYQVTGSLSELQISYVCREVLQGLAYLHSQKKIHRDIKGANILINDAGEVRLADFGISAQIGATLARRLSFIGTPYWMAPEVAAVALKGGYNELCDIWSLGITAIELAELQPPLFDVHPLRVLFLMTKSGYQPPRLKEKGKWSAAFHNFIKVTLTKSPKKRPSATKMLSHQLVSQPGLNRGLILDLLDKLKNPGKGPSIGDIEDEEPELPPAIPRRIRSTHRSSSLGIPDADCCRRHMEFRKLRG

Compound	IC50 [nM]
Cc1nc2c(N3CC[C@H](N)C3)c(NC(=O)c3ccnn(-c4c(F)cccc4F)c3=O)ccc2n1C1CC1 [Example 48, N-{4-[(35)-3-aminopyrrolidin-1-yl]-1-cyclopropyl-2-methyl-1,3-benzodiazol-5-yl}-2-(2,6-difluorophenyl)-3-oxopyridazine-4-carboxamide]	100 to 1000
CC(C)n1nc(F)c2c(N3C[C@H](N)C4(CC4)C3)c(NC(=O)c3ccc(=O)n(-c4c(F)cccc4F)n3)ccc21 [Example 199, (R)-N-(4-(7-amino-5-azaspiro[2.4]heptan-5-yl)-3-fluoro-1-isopropyl-1H-indazol-5-yl)-1-(2,6-difluorophenyl)-6-oxo-1,6-dihydropyridazine-3-carboxamide]	100 to 1000
C[C@@H]1CN(c2c(NC(=O)c3ccc(=O)n(-c4c(F)cccc4F)n3)ccc3nn(C4CCN(C)CC4)cc23)C[C@@H]1N [Example 308, N-(4-((3R,4R)-3-amino-4-methylpyrrolidin-1-yl)-2-(1-methylpiperidin-4-yl)-2H-indazol-5-yl)-1-(2,6-difluorophenyl)-6-oxo-1,6-dihydropyridazine-3-carboxamide]	< 100
Cc1nc2c(N3C[C@H](N)C(C)(C)C3)c(NC(=O)c3ccc(=O)n(-c4c(F)cccc4F)n3)ccc2n1[C@H]1CCOC1 [Example 150, N-(4-((R)-4-amino-3,3-dimethylpyrrolidin-1-yl)-2-methyl-1-((S)-tetrahydrofuran-3-yl)-1H-benzo[d]imidazol-5-yl)-1-(2,6-difluorophenyl)-6-oxo-1,6-dihydropyridazine-3-carboxamide]	< 100
Cc1nc2c(N3CCC(N)C(F)(F)C3)c(NC(=O)c3ccc(=O)n(-c4c(F)cccc4F)n3)ccc2n1C (stereo not shown) [Example 95, N-(4-(4-amino-3,3-difluoropiperidin-1-yl)-1,2-dimethyl-1H-benzo[d]imidazol-5-yl)-1-(2,6-difluorophenyl)-6-oxo-1,6-dihydropyridazine-3-carboxamide]	< 100
N[C@@H]1CCCN(c2c(NC(=O)c3ccc(=O)n(-c4c(F)cccc4F)n3)ccc3c2cnn3[C@H]2CCOC2)C1 [Example 263, N-(4-((R)-3-aminopiperidin-1-yl)-1-((S)-tetrahydrofuran-3-yl)-1H-indazol-5-yl)-1-(2,6-difluorophenyl)-6-oxo-1,6-dihydropyridazine-3-carboxamide]	< 100
CC(C)n1ncc2c(N3C[C@@H](C)[C@@H](N)C3)c(NC(=O)c3ccc(=O)n(-c4c(F)cccc4F)n3)cc(F)c21 [Example 193, N-(4-((3R,4R)-3-amino-4-methylpyrrolidin-1-yl)-7-fluoro-1-isopropyl-1H-indazol-5-yl)-1-(2,6-difluorophenyl)-6-oxo-1,6-dihydropyridazine-3-carboxamide]	< 100
Cn1c(C2CC2)nc2c(N3CC[C@H](N)C3)c(NC(=O)c3ccc(=O)n(-c4c(F)cccc4F)n3)ccc21 [Example 97, N-{4-[(35)-3-aminopyrrolidin-1-yl]-2-cyclopropyl-1-methyl-1,3-benzodiazol-5-yl}-1-(2,6-difluorophenyl)-6-oxopyridazine-3-carboxamide]	< 100

Continued, values first:

IC50 [nM]	Compound
< 100	CCn1cc2c(N3CC[C@@H](N)C3)c(NC(=O)c3ccc(=O)n(-c4c(F)cccc4F)n3)ccc2n1 [Example 329, (R)-N-(4-(3-aminopyrrolidin-1-yl)-2-ethyl-2H-indazol-5-yl)-1-(2,6-difluorophenyl)-6-oxo-1,6-dihydropyridazine-3-carboxamide]
< 100	Cc1nc2c(N3CC[C@@H](NC(=O)CN)C3)c(NC(=O)c3ccc(=O)n(-c4c(F)cccc4F)n3)ccc2n1C [Example 92, (R)-N-(4-(3-(2-aminoacetamido)pyrrolidin-1-yl)-1,2-dimethyl-1H-benzo[d]imidazol-5-yl)-1-(2,6-difluorophenyl)-6-oxo-1,6-dihydropyridazine-3-carboxamide]
< 100	CC(C)c1nc2c(N3CC[C@H](N)C3)c(NC(=O)c3ccc(=O)n(-c4c(F)cccc4F)n3)ccc2n1C [Example 132, (S)-N-(4-(3-aminopyrrolidin-1-yl)-2-isopropyl-1-methyl-1H-benzo[d]imidazol-5-yl)-1-(2,6-difluorophenyl)-6-oxo-1,6-dihydropyridazine-3-carboxamide]
< 100	CC(C)c1nc2c(N3CC[C@@H](NC(=O)CCN)C3)c(NC(=O)c3ccc(=O)n(-c4c(F)cccc4F)n3)ccc2n1C [Example 128, (R)-N-(4-(3-(3-aminopropanamido)pyrrolidin-1-yl)-2-isopropyl-1-methyl-1H-benzo[d]imidazol-5-yl)-1-(2,6-difluorophenyl)-6-oxo-1,6-dihydropyridazine-3-carboxamide]
< 100	CC(C)(C)C(C)(C)n1cc2c(N3C[C@H](N)C4(CC4)C3)c(NC(=O)c3ccc(=O)n(-c4c(F)cccc4F)n3)ccc2n1 [Example 246, (R)-N-(4-(7-amino-5-azaspiro[2.4]heptan-5-yl)-2-(2,3,3-trimethylbutan-2-yl)-2H-indazol-5-yl)-1-(2,6-difluorophenyl)-6-oxo-1,6-dihydropyridazine-3-carboxamide]
< 100	Cn1c(C(C)(C)C)nc2c(N3CCC(N)(CO)C3)c(NC(=O)c3ccc(=O)n(-c4c(F)cccc4F)n3)ccc21 (stereo not shown) [Example 105, N-(4-(3-amino-3-(hydroxymethyl)pyrrolidin-1-yl)-2-(tert-butyl)-1-methyl-1H-benzo[d]imidazol-5-yl)-1-(2,6-difluorophenyl)-6-oxo-1,6-dihydropyridazine-3-carboxamide]
< 100	COc1cccc(F)c1-c1cccc(C(=O)Nc2cc(F)c3c(cnn3C)c2N2CC[C@H](N)C2)[n+]1[O-] [Example 58, 2-((4-((S)-3-aminopyrrolidin-1-yl)-7-fluoro-1-methyl-1H-indazol-5-yl)carbamoyl)-6-(2-fluoro-6-methoxyphenyl)pyridine 1-oxide]
< 100	CC(C)c1nc2c(N3CC4C(N)C4C3)c(NC(=O)c3ccc(=O)n(-c4c(F)cccc4F)n3)ccc2n1C [Example 119, N-(4-((1R,5S,6r)-6-amino-3-azabicyclo[3.1.0]hexan-3-yl)-2-isopropyl-1-methyl-1H-benzo[d]imidazol-5-yl)-1-(2,6-difluorophenyl)-6-oxo-1,6-dihydropyridazine-3-carboxamide]
< 100	CC1(C)CN(c2c(NC(=O)c3ccc(=O)n(-c4c(F)cccc4F)n3)ccc3nn(C4CC4)cc23)C[C@@H]1N [Example 334, (R)-N-(4-(4-amino-3,3-dimethylpyrrolidin-1-yl)-2-cyclopropyl-2H-indazol-5-yl)-1-(2,6-difluorophenyl)-6-oxo-1,6-dihydropyridazine-3-carboxamide]
< 100	C[C@@H]1CN(c2c(NC(=O)c3ccc(=O)n(-c4c(F)cccc4F)n3)ccc3c2nc(C(C)(C)C)n3C)C[C@@H]1N [Example 104, N-(4-((3R,4R)-3-amino-4-methylpyrrolidin-1-yl)-2-(tert-butyl)-1-methyl-1H-benzo 112 midazolezol-5-yl)-1-(2,6-difluorophenyl)-6-oxo-1,6-dihydropyridazine-3-carboxamide]
< 100	CC(C)n1ncc2c(N3C[C@@H]4NCCO[C@H]4C3)c(NC(=O)c3ccc(=O)n(-c4c(F)cccc4F)n3)ccc21 [Example 194, 1-(2,6-difluorophenyl)-N-(4-((4aS,7aS)-hexahydropyrrolo[3,4-b][1,4]oxazin-6(2H)-yl)-1-isopropyl-1H-indazol-5-yl)-6-oxo-1,6-dihydropyridazine-3-carboxamide]
